Laboratory results: patent US20090221624A1, “4-AMINOQUINOLINE COMPOUNDS FOR TREATING VIRUS-RELATED CONDITIONS” (priority 2005, published 2009)
Like-named read-outs stand apart in the source and are kept apart here.

Experiments:
RSV minigenome = experiment: RSV minigenome-dependent β-galactosidase expression assay (RSV β-Gal); assay type: cell-based, respiratory syncytial virus; settings: for EC50: Secondary Data, RSV, read-out: RSV EC50; for inhibition at 25 µM: primary screening, 25 μM final concentration, 24 hours, percent inhibition of viral replication, read-out: RSV Inh; for RSV TI: therapeutic index CC50/EC50, RSV
EBOV minigenome = experiment: microbe, parasite or virus in culture; assay type: cell-based, Ebola virus; settings: for inhibition at 25 µM / EC50: Zaire ebolavirus; for inhibition at 25 µM: 24 h, read-out: EBOV Inh; for EC50: read-out: EBOV EC50
WNV (WN-hRuPac cells) = experiment: WNV antiviral activity, WN-hRuPac cells, Renilla luciferase; assay type: cell-based, West Nile virus; settings: for EC50 / inhibition at 25 µM: West Nile virus; for EC50: Secondary Data, WNV, read-out: WNV EC50; for inhibition at 25 µM: primary screening, 25 μM final concentration, 24 hours, percent inhibition of viral replication, read-out: WNV Inh; for WNV TI: therapeutic index CC50/EC50, WNV
SINV (SR19-F-luc cells) = experiment: SINV antiviral activity, SR19-F-luc cells, Firefly luciferase; assay type: cell-based; settings: Sindbis virus; for inhibition at 25 µM: primary screening, 25 μM final concentration, 24 hours, percent inhibition of viral replication, read-out: SINV Inh; for EC50: secondary screening, SR19-F-luc cells
[1] = test system: HCV replicon (Clone A cells, Huh7, subgenomic hepatits C virus RNA); experiment: HCV Neo screening assay (HCV replicon, NPTII ELISA); assay type: cell-based, hepatitis C virus; settings: for EC50 / inhibition at 25 µM: Hepatitis C virus, Huh-7; for EC50: Secondary Data, HCV; for inhibition at 25 µM: primary screening, 25 μM final concentration, 24 hours, percent inhibition of viral replication, read-out: HCV Inh; for HCV TI: therapeutic index CC50/EC50, HCV
YFV (YF-hRuPac cells) = experiment: microbe, parasite or virus in culture; assay type: cell-based, yellow fever virus; settings: for inhibition at 25 µM / EC50: Yellow fever virus; for inhibition at 25 µM: 24 h, read-out: YFV Inh; for EC50: read-out: YFV EC50
DNG (D2-hRuPac cells) = experiment: DNG antiviral activity, D2-hRuPac cells, Renilla luciferase; assay type: cell-based, Dengue fever virus; settings: Dengue virus, secondary screening
[2] = human respiratory syncytial virus

Structure (SMILES) | EC50 (RSV minigenome; [2]) [µM] | inhibition at 25 µM (RSV minigenome; [2]) [%] | RSV TI (RSV minigenome) | inhibition at 25 µM (EBOV minigenome) [%] | EC50 (WNV (WN-hRuPac cells)) [µM] | inhibition at 25 µM (WNV (WN-hRuPac cells)) [%] | WNV TI (WNV (WN-hRuPac cells)) | inhibition at 25 µM (SINV (SR19-F-luc cells)) [%] | inhibition at 25 µM [1] [%] | YFV TI (YFV (YF-hRuPac cells)) | inhibition at 25 µM (YFV (YF-hRuPac cells)) [%] | EC50 (YFV (YF-hRuPac cells)) [µM] | CC50 (in vitro; DNG CC50) [µM] | CC50 (in vitro; EBOV CC50) [µM] | CC50 (in vitro; HCV CC50) [µM] | CC50 (in vitro; RSV CC50) [µM] | CC50 (in vitro; SINV CC50) [µM] | CC50 (in vitro; WNV CC50) [µM] | CC50 (in vitro; YFV CC50) [µM] | EC50 (EBOV minigenome) [µM] | also measured
Cc1ccc(Nc2c3c(nc4ccc(C)cc24)CCC3)cc1 [Compound 28] | 4.58 | 93.7 | 9.56 | 19.2 | 17.4 | 75.2 | 2.52 | 81.3 | 155 | 6.45 | 75 | 6.79 | 43.8 | 43.8 | 6.82 | 43.8 | 43.8 | 43.8 | 43.8 |  | EC50 (SINV (SR19-F-luc cells)): 2.73 µM; EC50 [1]: 7.47 µM; HCV TI [1]: 0.91
Cc1cccc(Nc2c3c(nc4ccccc24)CCC3)c1 [Compound 11] | 2.9 | 99.5 | 9.91 | 62.7 | 9.79 | 75 | 2.94 | 81.7 | 143 | 5.74 | 79.1 | 5.01 | 28.8 | 28.8 | 9.67 | 28.8 | 28.8 | 28.8 | 28.8 | 25.9 | EC50 (SINV (SR19-F-luc cells)): 2.8 µM; EC50 [1]: 3.37 µM; HCV TI [1]: 2.87
Cc1cc(Nc2ccc(C)c(Cl)c2)c2cccc(C)c2n1 [Compound 50] | 6.76 | 85.5 | 9.79 | 42.6 | 6.3 | 82 | 10.51 | 65.8 | 138 | 19.41 | 92.2 | 3.41 | 66.2 | 66.2 | 7.32 | 66.2 | 66.2 | 66.2 | 66.2 |  | EC50 [1]: 8.62 µM; HCV TI [1]: 0.85
CCOc1ccc2nc(C)cc(Nc3ccc(Cl)cc3)c2c1 [Compound 59] | 3.26 | 99.7 | 6.5 | 92.2 | 10.9 | 83.7 | 1.94 | 93.5 | 140 | 4.82 | 84.6 | 4.4 | 21.2 | 21.2 | 7.45 | 21.2 | 21.2 | 21.2 | 21.2 | 3.23 | EC50 [1]: 6.07 µM; HCV TI [1]: 1.23
CCOC(=O)c1cnc2c(OC)cccc2c1NCc1ccccc1 [Compound 62] | 3.73 | 99 | 11.66 | 97.4 |  | 67.7 |  | 81.3 | -5.83 |  | 76.6 |  | 43.5 | 43.5 |  | 43.5 | 43.5 | 43.5 | 43.5 | 75 | 
CCOC(=O)c1cnc2c(OC)cccc2c1NCc1cccnc1 [Compound 68] | 3 | 98.9 | 17 | 74.5 |  | 49.7 |  | 72.8 | 44.7 |  | 71.8 |  | 51 | 51 |  | 51 | 51 | 51 | 51 | 68.7 | 
Cc1ccc(Nc2cc(C)nc3ccc(C)cc23)cc1 [Compound 6] | 9.86 | 91.2 | 3.57 | 42.7 | 38.7 | 79.1 | 0.91 | 76.8 | 187 | 2.73 | 77.7 | 12.9 | 35.2 | 35.2 | 11.7 | 35.2 | 35.2 | 35.2 | 35.2 |  | EC50 (SINV (SR19-F-luc cells)): 2.3 µM; EC50 [1]: 14 µM; HCV TI [1]: 0.84
COc1ccccc1Nc1cc(C)nc2c(C)c(C)cc(N)c12 [Compound 77] |  |  | 11.07 |  |  |  |  |  |  |  |  |  | 52.6 | 52.6 |  | 52.6 | 52.6 | 52.6 | 52.6 | 75 | EC50 (RSV minigenome): 4.75 µM; EBOV Inh (EBOV minigenome): 94.37%
CCOC(=O)c1cnc2c(OC)cccc2c1NCCCO [Compound 70] | 3.02 | 95.8 | 15.15 | 74.7 |  | 14.6 |  | 64.5 | 55.6 |  | 62.6 |  | 45.8 | 45.8 | ≥ 75 | 45.8 | 45.8 | 45.8 | 45.8 | 69.7 | 
CCOC(=O)c1cnc2c(Cl)c(Cl)ccc2c1NCc1ccco1 [Compound 19] | 1.77 | 82.3 | 11.81 | 0.97 | 3.98 | 80.6 | 5.25 | 11.9 | 50.9 | 7.98 | 93.2 | 2.62 | 20.9 | 20.9 |  | 20.9 | 20.9 | 20.9 | 20.9 | 75 | 
Cc1cc(NNC(=O)OCc2ccccc2)c2ccccc2n1 [Compound 78] | 1.38 |  | 37.03 | 42.3 | ≥ 75 |  | 0.68 |  |  | 2.95 |  | 17.3 | 51.1 | 51.1 | ≥ 75 | 51.1 | 51.1 | 51.1 | 51.1 | 75 | EC50 (DNG (D2-hRuPac cells)): 57 µM; EC50 (SINV (SR19-F-luc cells)): 7.54 µM
CCOC(=O)c1cnc2c(OC)cccc2c1NCc1ccco1 [Compound 67] | 1.2 | 98.3 | 24.88 | 86.6 |  | 33.5 |  | 68 | 5.39 |  | 70.7 |  | 29.9 | 29.9 |  | 29.9 | 29.9 | 29.9 | 29.9 | 20.1 | 
